Where a name gives a salt, the structure may show the parent alone.
Columns and labels:
[1] = system: tobacco budworm moths; settings: cited from earlier work
[2] = system: corn earworm moths; settings: cited from earlier work
[3] = system: H. zea males; settings: caged males; cited from earlier work
[4] = system: H. zea males; settings: field experiments, sticky or electric grid traps; cited from earlier work
[5] = system: H. zea females; assay: Bioassay: pheromone content of ligated, PBAN-injected females after a second injection with the isolated material; assay type: in vivo, Helicoverpa zea
Method: The activity of the two peptides was evaluated by bioassay. Females were first ligated between head & thorax to remove their own source of PBAN; they were then injected with PBAN to stimulate pheromone biosynthesis, followed by a later injection with the isolated material.
Females in their 1st or 2nd photophase after emergence are ligated between the head and thorax with silk thread. The following morning, approximately 16 hours later, the females are injected with 2 picomoles of the pheromonotropic peptide PBAN. One hour later, they are injected a second time with fractionated material obtained as described supra. Two hours later, the tip of the abdomen (at the 7th abdominal segment), containing the ovipositor and the glandular tissue producing sex pheromone, is excised and extracted with 5-15 μl heptane The amount of the major component of sex pheromone, Z-11-hexadecenal, is quantified by gas chromatography. Females receiving saline (control) at the second injection typically contain 50-150 nanograms pheromone in the extract while females having been injected with the peptides extracted from the male reproductive tract are found to have 1-5 nanograms.

[6] = system: female H. zea; assay: Depletion of female sex pheromone after transfer of the polypeptide during mating; assay type: in vivo, Helicoverpa zea
Method: This invention relates to a polypeptide which is transferred from the male corn earworm moth to the female during mating. After transfer, a decline in the production of sex pheromone is observed for at least 24 hours and the female becomes unattractive to males over that period of time. A continued presence of this peptide within the female serves as an effective means of insect control by rendering it permanently unattractive. The peptide is also useful in the study of insect physiology.
Non-volatile chemicals may also trigger behavioral changes. As described above, the neuropeptide PBAN initiates pheromone biosynthesis. In addition, another polypeptide, pheromonostatic peptide (PSP) is produced in the reproductive tract of male H. zea and is transferred with spermatozoa to the female during mating.

CCCC/C=C\CCCCCCCCOC=O [(Z)-9-TDF, (Z)-9-tetradecen-1-ol formate]
reduction of mating [1]: effective in reducing mating
reduction of mating [2]: effective in reducing mating

CCCC/C=C\CCCCCCCCCC=O [Z-11-hexadecenal]
sex stimulation activity [3]: strong sex stimulation activity
catch of males in traps in the presence of the compound [4]: inhibited

PSP: basic, 57-amino acid peptide, 6615 daltons, one disulfide, pyro-Glu N-terminus, amidated C-terminus, from male H. zea accessory glands and duplex
pheromone accumulation with versus without PSP injection ([5]; ligated females injected with PBAN, then with the isolated material): females receiving no PSP typically accumulated pheromone in much higher amounts than those having been injected with PSP
amount of Z-11-hexadecenal (major component of sex pheromone) in the ovipositor/gland extract ([5]; ligated females, 2 picomoles PBAN, test material injected 1 hour later, gland excised 2 hours later, gas chromatography, saline control 50-150 nanograms): 1-5 nanograms
duration of the pheromone depletion ([6]; after transfer during mating): at least 24 hours
effect on female sex pheromone after transfer at mating ([6]; transferred with spermatozoa from male to female during mating): causes a depletion of the sex pheromone
